From ChEMBL document CHEMBL1121401, “Potential antitumor agents. 33. Quantitative structure--activity relationships for mutagenic activity and antitumor activity of substituted 4'-(9-acridinylamino)methanesulfonanilide derivatives” (J Med Chem, 1980)
Active and inactive are the calls of the source. The rule behind the calls is not given here.

Assays:
[1] = physchem
Description: Ionization constant (pKa)

[2] = species on record: Mus musculus
Description: Drug dose in (mg/kg)/day to provide an increase in life span of 40% was determined; nr refers to Particular level of biological response required not reached before drug toxicity supervened

[3] = system: Salmonella typhimurium; conditions: Salmonella enterica subsp. enterica serovar Typhimurium
[4] = species on record: Mus musculus; remark: listed apart in the source
Description: Drug dose in (mg/kg)/day to provide an increase in life span of 40% was determined;nr refers to Particular level of biological response required not reached before drug toxicity supervened

Compound	pKa [1]	Log 1/D40 [2]	Log M50 [3]	Log 1/D40 [4]
CS(=O)(=O)Nc1ccc(Nc2c3ccccc3nc3cnccc23)cc1	–	Not reached	–	–
CS(=O)(=O)Nc1ccc(Nc2c3ccccc3nc3ccc([N+](=O)[O-])cc23)cc1	–	Not reached	–	–
CS(=O)(=O)Nc1ccc(Nc2c3ccccc3nc3cc(N=[N+]=[N-])ccc23)cc1	7	–	–	–
CS(=O)(=O)Nc1ccc(Nc2c3ccccc3nc3cc(NS(C)(=O)=O)ccc23)cc1	–	–	inactive	–
CS(=O)(=O)Nc1ccc(Nc2c3ccccc3nc3ccccc23)cc1[N+](=O)[O-]	–	Not reached	–	–
Cc1cc(NS(C)(=O)=O)ccc1Nc1c2ccccc2nc2ccccc12	7.38	–	–	–
CS(=O)(=O)Nc1ccc(Nc2c3ccccc3nc3c(Cl)cccc23)cc1	5.92	–	–	Not reached
COc1cccc2c(Nc3ccc(NS(C)(=O)=O)cc3)c3ccccc3nc12	7.15	–	–	–
C[N+](C)=[N+]=Nc1ccc2c(Nc3ccc(NS(C)(=O)=O)cc3)c3ccccc3nc2c1	7.13	–	–	–
CS(=O)(=O)Nc1ccc(Nc2c3ccccc3nc3ccccc23)c([N+](=O)[O-])c1	4.86	Not reached	inactive	–
CS(=O)(=O)Nc1ccc(Nc2c3ccccc3nc3ccccc23)cc1Cl	6.44	Not reached	–	–
CS(=O)(=O)Nc1ccc(Nc2c3ccccc3nc3cc(C#N)ccc23)cc1	5.75	Not reached	inactive	–
COC(=O)Nc1ccc2c(Nc3ccc(NS(C)(=O)=O)cc3)c3ccccc3nc2c1	7.48	–	–	–
CS(=O)(=O)Nc1ccc(Nc2c3ccccc3nc3ccccc23)c(N)c1	7.65	–	–	–
CCCCCCS(=O)(=O)Nc1ccc(Nc2c3ccccc3nc3ccccc23)cc1	–	Not reached	–	–
COc1cccc2nc3ccccc3c(Nc3ccc(NS(C)(=O)=O)cc3)c12	–	Not reached	–	–
CS(=O)(=O)Nc1ccc(Nc2c3ccccc3nc3ccccc23)c(Cl)c1	6.34	Not reached	–	–
Cc1cc(Nc2c3ccccc3nc3ccccc23)ccc1NS(C)(=O)=O	7.08	Not reached	–	–
COc1cc(Nc2c3ccccc3nc3ccccc23)ccc1NS(C)(=O)=O [o-Amsacrine]	7.03	Not reached	–	–

Continued, in another order:

pKa [1]	Compound	Log 1/D40 [2]	Log M50 [3]	Log 1/D40 [4]
9.3	CNc1ccc2c(Nc3ccc(NS(C)(=O)=O)cc3)c3ccccc3nc2c1	–	–	–
6.34	CS(=O)(=O)Nc1ccc(Nc2c3ccccc3nc3ccc(C(N)=O)cc23)cc1	Not reached	–	–
6.56	CS(=O)(=O)Nc1ccc(Nc2c3ccccc3nc3cc(Br)ccc23)cc1	–	–	–
6.87	COc1ccc2nc3ccccc3c(Nc3ccc(NS(C)(=O)=O)cc3)c2c1	Not reached	–	–
7.57	COc1ccc2c(Nc3ccc(NS(C)(=O)=O)cc3)c3ccccc3nc2c1	–	–	–
7.49	Cc1ccc2c(Nc3ccc(NS(C)(=O)=O)cc3)c3ccccc3nc2c1	–	–	–
7.23	Cc1ccc2nc3ccccc3c(Nc3ccc(NS(C)(=O)=O)cc3)c2c1	Not reached	–	–
6.42	CS(=O)(=O)Nc1ccc(Nc2c3ccccc3nc3ccc(Cl)cc23)cc1	Not reached	–	–
5.65	CS(=O)(=O)Nc1ccc(Nc2c3ccccc3nc3cc(S(C)(=O)=O)ccc23)cc1	Not reached	–	–
5.86	CS(=O)(=O)Nc1ccc(Nc2c3ccccc3nc3cccc(Cl)c23)cc1	–	–	–
6.43	Cc1cccc2nc3ccccc3c(Nc3ccc(NS(C)(=O)=O)cc3)c12	–	–	–
6.57	CS(=O)(=O)Nc1ccc(Nc2c3ccccc3nc3cc(Cl)ccc23)cc1	–	–	–
